Assay results from patent US20230150924A1, “NOVEL COMPOUND HAVING CANCER METASTASIS INHIBITORY ACTIVITY, PREPARATION METHOD THEREFOR, AND PHARMACEUTICAL COMPOSITION FOR INHIBITING CANCER METASTASIS AND INVASION OR TREATING COLORECTAL CANCER, COMPRISING COMPOUND” (CELLGENTEK CO., LTD., priority 2019, published 2023).
Where two headings read alike, the source gives them in different places.

Assays:
KAI1 promoter = KAI1 promoter luciferase reporter assay in transfected Caco2 cells; type: cell-based, human; settings: Homo sapiens, Caco-2, 16 h, read-out: Relative KAI promoter activity
[1] = tested on: invasion of colorectal cancer cells; experiment: In vivo relative invation (invasion; EV and KITENIN controls, no method described); settings: relative to EV (=1); KIT = KITENIN
[2] = 1 μM compound, 16 hours, transfected Caco2 cells, luciferase activity relative to DMSO control (=1)

`COc1cccc(C(=O)CNC(=O)c2cccs2)c1` [Example 127, N-(2-(3-methoxyphenyl)-2-oxoethyl)thiophene-2-carboxamide] was tested, and the fold induction at 1 µM (KAI1 promoter; [2]) was 2.46 and the “In vivo relative invation” value [1] was 1.351.
In the case of `COCC(=O)N1CCC(Oc2ccccc2C(=O)NCC(=O)c2ccccc2)CC1` [Example 178, 2-((1-(2-methoxyacetyl)piperidin-4-yl)oxy)-N-(2-oxo-2-phenylethyl)benzamide], the fold induction at 1 µM (KAI1 promoter; [2]) is reported as 0.91 and the “In vivo relative invation” value [1] is reported as 1.228.
`CCCCN(CCO)Cc1cccc(C(=O)NCC(=O)c2cccc(OC)c2)c1` [Example 288, 3-((butyl (2-hydroxyethyl)amino)methyl)-N-(2-(3-methoxyphenyl)-2-oxoethyl)benzamide] was tested, and the fold induction at 1 µM (KAI1 promoter; [2]) was 1.73 and the “In vivo relative invation” value [1] was 1.222.
For `O=C(CNC(=O)c1ccccc1Cl)c1ccc(N2CCOCC2)cc1` [Example 138, 2-chloro-N-(2-(4-morpholinophenyl)-2-oxoethyl)benzamide], the fold induction at 1 µM (KAI1 promoter; [2]) was 1.15 and the “In vivo relative invation” value [1] was 1.258.
`O=C(CNC(=O)c1cccs1)c1ccccc1` [Example 18, N-(2-oxo-2-phenylethyl)thiophene-2-carboxamide] was tested, and the fold induction at 1 µM (KAI1 promoter; [2]) was 2.18 and the “In vivo relative invation” value [1] was 1.1.
With `CC(Oc1ccccc1)C(=O)NCC(=O)c1ccccc1` (centres unmarked) [Example 2, N-(2-oxo-2-phenylethyl)-2-phenoxypropanamide] the fold induction at 1 µM (KAI1 promoter) was 1.14 and the “In vivo relative invation” value [1] was 0.8651.
For `O=C(CNC(=O)c1cccc(Cl)c1Cl)c1ccc(Cl)cc1` [Example 80, 2,3-dichloro-N-(2-(4-chlorophenyl)-2-oxoethyl)benzamide], the fold induction at 1 µM (KAI1 promoter; [2]) was 0.86 and the “In vivo relative invation” value [1] was 1.183.
With `O=C(COc1ccccc1C(=O)NCC(=O)c1ccccc1)Nc1cccc(Br)c1` [Example 225, 2-(2-((3-bromophenyl)amino)-2-oxoethoxy)-N-(2-oxo-2-phenylethyl)benzamide] the fold induction at 1 µM (KAI1 promoter; [2]) was 1.35 and the “In vivo relative invation” value [1] was 1.235.
With `C/C=C/C(=O)NCC(=O)c1ccccc1` [Example 8, (E)-N-(2-oxo-2-phenylethyl)but-2-enamide] the fold induction at 1 µM (KAI1 promoter; [2]) was 1.15 and the “In vivo relative invation” value [1] was 1.077.
For `O=C(CNC(=O)c1ccc(F)cc1F)c1ccc(Cl)cc1` [Example 64, N-(2-(4-chlorophenyl)-2-oxoethyl)-2,4ifluorobenzamide], the fold induction at 1 µM (KAI1 promoter; [2]) was 1.35 and the “In vivo relative invation” value [1] was 1.083.
With `O=C(CNC(=O)c1ccc(F)cc1F)c1ccccc1` [Example 22, 2,4-difluoro-N-(2-oxo-2-phenylethyl)benzamide] the fold induction at 1 µM (KAI1 promoter; [2]) was 1.56 and the “In vivo relative invation” value [1] was 1.163.
`O=C(CNC(=O)c1ccc(F)cc1)c1cccnc1` [Example 133, 4-fluoro-N-(2-oxo-2-(pyridin-3-yl)ethyl)benzamide] was tested, and the fold induction at 1 µM (KAI1 promoter; [2]) was 1.15 and the “In vivo relative invation” value [1] was 1.32.
For `CCC(=O)N1CCC(Oc2ccccc2C(=O)NCC(=O)c2ccccc2)CC1` [Example 164, N-(2-oxo-2-phenylethyl)-2-((1-propionylpiperidin-4-yl)oxy)benzamide], the fold induction at 1 µM (KAI1 promoter; [2]) was 0.98 and the “In vivo relative invation” value [1] was 1.088.
With `CN(Cc1ccccc1)Cc1ccc(C(=O)NCC(=O)c2ccccc2)cc1` [Example 266, 4-((benzyl(methyl)amino)methyl)-N-(2-oxo-2-phenylethyl)benzamide] the fold induction at 1 µM (KAI1 promoter; [2]) was 2.21 and the “In vivo relative invation” value [1] was 1.401.
In the case of `COc1cccc(C(=O)CNC(=O)c2cccc(CN3CCC(N4CCCCC4)CC3)c2)c1` [Example 283, 3-([1,4′-bipiperidin]-1′-ylmethyl)-N-(2-(3-methoxyphenyl)-2-oxoethyl)benzamide], the fold induction at 1 µM (KAI1 promoter; [2]) is reported as 1.33 and the “In vivo relative invation” value [1] is reported as 1.235.
With `CC(C)(C)OC(=O)N1CCN(Cc2ccc(C(=O)NCC(=O)c3ccccc3)cc2)CC1` [Example 269, tert-butyl 4-(4-((2-oxo-2-phenylethyl)carbamoyl)benzyl) piperazine-1-carboxylate] the fold induction at 1 µM (KAI1 promoter; [2]) was 1.38 and the “In vivo relative invation” value [1] was 1.163.
With `O=C(CNC(=O)c1ccccc1F)c1ccccc1` [Example 3, 2-fluoro-N-(2-oxo-2-phenylethyl)benzamide] the fold induction at 1 µM (KAI1 promoter) was 2.12 and the “In vivo relative invation” value [1] was 1.
`CN(C)Cc1ccccc1C(=O)NCC(=O)c1ccccc1` [Example 296, 2-((dimethylamino)methyl)-N-(2-oxo-2-phenylethyl)benzamide] was tested, and the fold induction at 1 µM (KAI1 promoter; [2]) was 1.53 and the “In vivo relative invation” value [1] was 1.026.
`CCCCC(=O)NCC(=O)c1ccc(Cl)cc1` [Example 61, N-(2-(4-chlorophenyl)-2-oxoethyl)pentanamide] was tested, and the fold induction at 1 µM (KAI1 promoter; [2]) was 0.72 and the “In vivo relative invation” value [1] was 1.
In the case of `O=C(CNC(=O)c1ccc(CN2CCN(c3ccccn3)CC2)cc1)c1ccccc1` [Example 264, N-(2-oxo-2-phenylethyl)-4-((4-(pyridin-2-yl)piperazin-1-yl)methyl)benzamide], the fold induction at 1 µM (KAI1 promoter; [2]) is reported as 1.91 and the “In vivo relative invation” value [1] is reported as 1.199.
In the case of `COCC(=O)NCC(=O)c1ccc(Cl)cc1` [Example 65, N-(2-(4-chlorophenyl)-2-oxoethyl)-2-methoxyacetamide], the fold induction at 1 µM (KAI1 promoter; [2]) is reported as 0.84 and the “In vivo relative invation” value [1] is reported as 1.191.
For `O=C(CNC(=O)c1ccccc1OC1CCN(C(=O)c2cccc(C(F)(F)F)c2)CC1)c1ccccc1` [Example 192, N-(2-oxo-2-phenylethyl)-2-((1-(3-(trifluoromethyl)benzoyl)piperidin-4-yl)oxy)benzamide], the fold induction at 1 µM (KAI1 promoter; [2]) was 0.92 and the “In vivo relative invation” value [1] was 1.25.
With `CCCCC(=O)N1CCC(Oc2ccccc2C(=O)NCC(=O)c2ccccc2)CC1` [Example 172, N-(2-oxo-2-phenylethyl)-2-((1-pentanoylpiperidin-4-yl)oxy)benzamide] the fold induction at 1 µM (KAI1 promoter; [2]) was 0.93 and the “In vivo relative invation” value [1] was 1.16.
`O=C(CNC(=O)c1cccc(C(F)(F)F)c1)c1ccccc1` [Example 31, N-(2-oxo-2-phenylethyl)-3-(trifluoromethyl)benzamide] was tested, and the fold induction at 1 µM (KAI1 promoter; [2]) was 1.18 and the “In vivo relative invation” value [1] was 0.8211.
With `CCN(Cc1ccc(C(=O)NCC(=O)c2ccccc2)cc1)c1ccccc1` [Example 263, 4-((ethyl(phenyl)amino)methyl)-N-(2-oxo-2-phenylethyl)benzamide] the fold induction at 1 µM (KAI1 promoter; [2]) was 2.23 and the “In vivo relative invation” value [1] was 1.301.
For `O=C(CNS(=O)(=O)c1ccc(F)cc1)c1ccccc1` [Example 26, 4-fluoro-N-(2-oxo-2-phenylethyl)benzenesulfonamide], the fold induction at 1 µM (KAI1 promoter; [2]) was 1.26 and the “In vivo relative invation” value [1] was 1.063.
`Cc1ccccc1C(=O)NCC(=O)c1ccccc1` [Example 11, 2-methyl-N-(2-oxo-2-phenylethyl)benzamide] was tested, and the fold induction at 1 µM (KAI1 promoter; [2]) was 1.82 and the “In vivo relative invation” value [1] was 1.036.
In the case of `O=C(CNC(=O)c1ccc(OC(F)(F)F)cc1)c1ccc(Cl)cc1` [Example 81, N-(2-(4-chlorophenyl)-2-oxoethyl)-4-(trifluoromethoxy)benzamide], the fold induction at 1 µM (KAI1 promoter; [2]) is reported as 0.8 and the “In vivo relative invation” value [1] is reported as 1.142.
In the case of `COCC(=O)NCC(=O)c1ccccc1` [Example 23, 2-methoxy-N-(2-oxo-2-phenylethyl) acetamide], the fold induction at 1 µM (KAI1 promoter; [2]) is reported as 1 and the “In vivo relative invation” value [1] is reported as 1.104.
With `CC(C)(C)CC(=O)NCC(=O)c1ccc(Cl)cc1` [Example 60, N-(2-(4-chlorophenyl)-2-oxoethyl)-3,3-dimethylbutanamide] the fold induction at 1 µM (KAI1 promoter; [2]) was 0.81 and the “In vivo relative invation” value [1] was 0.9713.
With `O=C(CNC(=O)c1ccccc1OC1CCN(C(=O)c2ccc(Cl)cc2)CC1)c1ccccc1` [Example 151, 2-((1-(4-chlorobenzoyl)piperidin-4-yl)oxy)-N-(2-oxo-2-phenylethyl)benzamide] the fold induction at 1 µM (KAI1 promoter; [2]) was 1.05 and the “In vivo relative invation” value [1] was 1.212.
For `COc1ccc(NC(=O)COc2ccccc2C(=O)NCC(=O)c2ccccc2)cc1OC` [Example 216, 2-(2-((3,4-dimethoxyphenyl)amino)-2-oxoethoxy)-N-(2-oxo-2-phenylethyl)benzamide], the fold induction at 1 µM (KAI1 promoter; [2]) was 1.2 and the “In vivo relative invation” value [1] was 1.255.
`O=C(CNC(=O)c1ccc(F)cc1Cl)c1ccccc1` [Example 33, 2-chloro-4-fluoro-N-(2-oxo-2-phenylethyl)benzamide] was tested, and the fold induction at 1 µM (KAI1 promoter; [2]) was 1.78 and the “In vivo relative invation” value [1] was 0.7513.
With `O=C(CNC(=O)C1CCCCC1)c1ccccc1` [Example 15, N-(2-oxo-2-phenylethyl)cyclohexanecarboxamide] the fold induction at 1 µM (KAI1 promoter; [2]) was 1.74 and the “In vivo relative invation” value [1] was 1.17.
In the case of `Cc1ccc(S(=O)(=O)NCC(=O)c2ccc(Cl)cc2)cc1` [Example 68, N-(2-(4-chlorophenyl)-2-oxoethyl)-4-methylbenzenesulfonamide], the fold induction at 1 µM (KAI1 promoter; [2]) is reported as 0.88 and the “In vivo relative invation” value [1] is reported as 1.125.
In the case of `CN(C)Cc1cccc(C(=O)NCC(=O)c2ccccc2)c1` [Example 231, 3-((dimethylamino)methyl)-N-(2-oxo-2-phenylethyl)benzamide], the fold induction at 1 µM (KAI1 promoter; [2]) is reported as 1.56 and the “In vivo relative invation” value [1] is reported as 1.122.
For `COCc1ccccc1C(=O)NCC(=O)c1ccc(Cl)cc1` [Example 59, N-(2-(4-chlorophenyl)-2-oxoethyl)-2-(methoxymethyl)benzamide], the fold induction at 1 µM (KAI1 promoter; [2]) was 1.56 and the “In vivo relative invation” value [1] was 1.007.
